Here are results for 18 compounds from ChEMBL document CHEMBL3046842, “Antimicrobial and insect antifeedant activities of some Trogers bases” (2012).

Active and inactive are the calls of the source.

In one test the test system is Aspergillus niger. Description: Antifungal activity against Aspergillus niger at 50 ug/ml after 72 hrs by disc diffusion method. The test is classed as functional, organism-based. (Agar diffusion results depend on both activity and mobility in agar.)
In the next test the test system is Staphylococcus aureus. Description: Antibacterial activity against Staphylococcus aureus at 250 ug/ml after 24 to 45 hrs by disc diffusion method. The test is classed as functional. Particulars: read-out: IZ.
The next test has as its system Klebsiella pneumoniae. As to the kind of experiment: Antibacterial activity against Klebsiella pneumoniae at 250 ug/ml after 24 to 45 hrs by disc diffusion method. Particulars: read-out: IZ. The format is functional.
A further test deals with Penicillium. As to the kind of experiment: Antifungal activity against Penicillium at 50 ug/ml after 72 hrs by disc diffusion method. The test is classed as functional, organism-based.
The test system of a further test is Pseudomonas. As to the kind of experiment: Antibacterial activity against Pseudomonas at 250 ug/ml after 24 to 45 hrs by disc diffusion method. Particulars: read-out: IZ. The format is functional.
The next test relates to Proteus vulgaris. Description: Antibacterial activity against Proteus vulgaris at 250 ug/ml after 24 to 45 hrs by disc diffusion method. The test is classed as functional. Particulars: read-out: IZ.
Another test deals with Escherichia coli. As to the kind of experiment: Antibacterial activity against Escherichia coli at 250 ug/ml after 24 to 45 hrs by disc diffusion method. The test is classed as functional. Particulars: read-out: IZ.
A further test deals with Achaea janata. Description: Antifeedant activity against fourth instar larvae of Achaea janata fed on compound treated castor leaves at 200 ppm after 24 hrs by leaf disc method. The format is functional, organism-based.
A further test has as its system Candida albicans. Description: Antifungal activity against Candida albicans at 250 ug/ml after 72 hrs by disc diffusion method. The test is classed as functional. Particulars: for zone of inhibition at 250 µg/mL: read-out: IZ.
The next test concerns Enterococcus faecalis. As to the kind of experiment: Antibacterial activity against Enterococcus faecalis at 250 ug/ml after 24 to 45 hrs by disc diffusion method. The format is functional. Particulars: for zone of inhibition at 250 µg/mL: read-out: IZ.

For the compound `Clc1ccc2c(c1)CN1CN2Cc2cc(Cl)ccc21`, the result in the test with Aspergillus niger, with Penicillium, in the test with Candida albicans and in the test on Enterococcus faecalis was inactive. The zone of inhibition at 250 µg/mL with Staphylococcus aureus, with Klebsiella pneumoniae, with Pseudomonas, in the test with Proteus vulgaris and in the test with Escherichia coli was 13 mm in each case. In addition, the outcome in the test with Achaea janata was Active.
For `Fc1ccc2c(c1)N1Cc3ccc(F)cc3N(C2)C1`, the outcome in the test with Aspergillus niger, in the test with Penicillium and with Enterococcus faecalis was inactive. Moreover, the zone of inhibition at 250 µg/mL amounted to 13 mm in the test on Staphylococcus aureus; 13 mm in the test on Klebsiella pneumoniae; 8 mm with Pseudomonas; 13 mm in the test with Proteus vulgaris; 13 mm with Escherichia coli; 8 mm with Candida albicans. In the test on Achaea janata, the outcome was Active.
For `Clc1ccc2c(c1)N1Cc3ccc(Cl)cc3N(C2)C1`, the outcome in the test with Aspergillus niger and in the test with Penicillium was inactive. Further, the zone of inhibition at 250 µg/mL with Staphylococcus aureus worked out at 13 mm; in the test with Klebsiella pneumoniae, 13 mm; in the test with Pseudomonas, 13 mm; in the test with Proteus vulgaris it was 13 mm; in the test on Escherichia coli it was 13 mm; in the test with Candida albicans it was 8 mm. Besides, in the test with Enterococcus faecalis, the zone of inhibition at 250 µg/mL came to 13 mm. Further, in the test with Achaea janata, the result was Active.
With `Brc1ccc2c(c1)N1Cc3ccc(Br)cc3N(C2)C1`, the outcome with Aspergillus niger, with Penicillium and in the test with Enterococcus faecalis was inactive. In addition, the zone of inhibition at 250 µg/mL in the test with Staphylococcus aureus was found to be 13 mm; with Klebsiella pneumoniae it was 8 mm; in the test with Pseudomonas, 8 mm; with Proteus vulgaris it was 8 mm; with Escherichia coli, 8 mm; with Candida albicans, 8 mm. Moreover, the outcome with Achaea janata was Active.
Consider `Cc1cc(F)c2c(c1)CN1CN2Cc2cc(C)cc(F)c21`, for which the result in the test with Aspergillus niger, in the test on Penicillium and in the test on Enterococcus faecalis was inactive. Besides, the zone of inhibition at 250 µg/mL turned out to be 13 mm in the test on Staphylococcus aureus; 13 mm in the test with Klebsiella pneumoniae; 8 mm in the test with Pseudomonas; 13 mm in the test on Proteus vulgaris; 13 mm in the test with Escherichia coli; 8 mm in the test with Candida albicans. For the same compound, the outcome in the test with Achaea janata was Active.
With `Clc1cccc2c1N1Cc3cccc(Cl)c3N(C2)C1`, the outcome with Aspergillus niger and in the test with Penicillium was inactive. The zone of inhibition at 250 µg/mL amounted to 13 mm in the test on Staphylococcus aureus; 8 mm with Klebsiella pneumoniae; 8 mm in the test with Pseudomonas; 8 mm in the test with Proteus vulgaris; 8 mm in the test on Escherichia coli; 8 mm in the test with Candida albicans. Besides, the zone of inhibition at 250 µg/mL in the test with Enterococcus faecalis came out at 13 mm. The result in the test with Achaea janata was Active.
For `COc1cc2c(cc1Cl)N1Cc3cc(OC)c(Cl)cc3N(C2)C1`, the result with Aspergillus niger was inactive. Besides, the zone of inhibition at 250 µg/mL in the test on Staphylococcus aureus, in the test on Klebsiella pneumoniae, in the test with Pseudomonas, with Proteus vulgaris, with Escherichia coli and in the test with Candida albicans was 20 mm each time. Further, in the test on Enterococcus faecalis, the zone of inhibition at 250 µg/mL came out at 8 mm. Besides, the outcome in the test with Penicillium and in the test with Achaea janata was Active.
`Cc1ccc2c(c1Br)CN1CN2Cc2c1ccc(C)c2Br`: the result in the test on Aspergillus niger and with Penicillium was inactive. For the same compound, the zone of inhibition at 250 µg/mL worked out at 13 mm in the test on Staphylococcus aureus; 13 mm in the test on Klebsiella pneumoniae; 13 mm in the test on Pseudomonas; 13 mm with Proteus vulgaris; 13 mm in the test on Escherichia coli; 8 mm in the test with Candida albicans. In addition, the zone of inhibition at 250 µg/mL with Enterococcus faecalis is 8 mm. Further, the outcome with Achaea janata was Active.
Turning to `Brc1cccc2c1CN1CN2Cc2c(Br)cccc21`, the result with Aspergillus niger and in the test on Penicillium was inactive. Moreover, the zone of inhibition at 250 µg/mL was determined as 8 mm with Staphylococcus aureus; 13 mm in the test with Klebsiella pneumoniae; 13 mm with Pseudomonas; 8 mm with Proteus vulgaris; 8 mm in the test on Escherichia coli; 8 mm with Candida albicans. The zone of inhibition at 250 µg/mL in the test on Enterococcus faecalis turned out to be 13 mm. Besides, the result with Achaea janata was Active.
As for `Fc1cccc2c1N1Cc3cccc(F)c3N(C2)C1`, the outcome in the test on Aspergillus niger, with Penicillium and in the test on Enterococcus faecalis was inactive. In addition, the zone of inhibition at 250 µg/mL in the test with Staphylococcus aureus was 8 mm; in the test with Klebsiella pneumoniae, 8 mm; in the test on Pseudomonas it was 8 mm; with Proteus vulgaris, 8 mm; in the test on Escherichia coli, 13 mm; in the test with Candida albicans it was 8 mm. Also, the result in the test on Achaea janata was Active.
For `Cc1cc(Br)cc2c1N1Cc3cc(Br)cc(C)c3N(C2)C1`, the result in the test on Aspergillus niger and in the test on Penicillium was inactive. Besides, the zone of inhibition at 250 µg/mL in the test with Staphylococcus aureus came to 8 mm; in the test with Klebsiella pneumoniae, 13 mm; in the test with Pseudomonas it was 13 mm; in the test on Proteus vulgaris it was 8 mm; in the test with Escherichia coli, 8 mm; in the test on Candida albicans, 8 mm. Also, the zone of inhibition at 250 µg/mL in the test with Enterococcus faecalis was found to be 13 mm. For the same compound, in the test with Achaea janata, the result was Active.
Take `COc1ccc2c(c1Cl)CN1CN2Cc2c1ccc(OC)c2Cl`: the outcome in the test with Aspergillus niger was inactive. Besides, the zone of inhibition at 250 µg/mL in the test on Staphylococcus aureus, in the test with Klebsiella pneumoniae, with Pseudomonas, in the test with Proteus vulgaris, in the test with Escherichia coli and in the test on Candida albicans was 20 mm in each case. Moreover, in the test with Enterococcus faecalis, the zone of inhibition at 250 µg/mL is 13 mm. Also, the outcome in the test with Penicillium and with Achaea janata was Active.
On to `Cc1cc(Cl)cc2c1N1Cc3cc(Cl)cc(C)c3N(C2)C1`, for which, in the test with Aspergillus niger, the outcome was inactive. In addition, the zone of inhibition at 250 µg/mL was determined as 8 mm in the test with Staphylococcus aureus; 13 mm in the test with Klebsiella pneumoniae; 13 mm in the test with Pseudomonas; 8 mm with Proteus vulgaris; 8 mm in the test on Escherichia coli; 8 mm with Candida albicans. In addition, in the test with Enterococcus faecalis, the zone of inhibition at 250 µg/mL is 13 mm. Moreover, the outcome in the test on Penicillium and in the test on Achaea janata was Active.
As to `Cc1cc2c(cc1Cl)N1Cc3cc(C)c(Cl)cc3N(C2)C1`, the result with Aspergillus niger and with Penicillium was inactive. The zone of inhibition at 250 µg/mL in the test with Staphylococcus aureus was found to be 8 mm; in the test with Klebsiella pneumoniae, 13 mm; with Pseudomonas it was 13 mm; in the test with Proteus vulgaris, 8 mm; with Escherichia coli, 8 mm; in the test on Candida albicans, 13 mm. Moreover, the zone of inhibition at 250 µg/mL with Enterococcus faecalis worked out at 13 mm. The outcome with Achaea janata was Active.
`Cc1cc(I)c2c(c1)CN1CN2Cc2cc(C)cc(I)c21`: the outcome with Aspergillus niger and in the test on Penicillium was inactive. Also, the zone of inhibition at 250 µg/mL in the test with Staphylococcus aureus worked out at 13 mm; in the test on Klebsiella pneumoniae, 13 mm; in the test on Pseudomonas it was 8 mm; in the test on Proteus vulgaris it was 13 mm; in the test with Escherichia coli, 13 mm; with Candida albicans, 13 mm. In the test on Enterococcus faecalis, the zone of inhibition at 250 µg/mL was 8 mm. The outcome in the test with Achaea janata was Active.
Regarding `COc1ccc2c(c1Br)CN1CN2Cc2c1ccc(OC)c2Br`, the result in the test with Aspergillus niger, in the test with Penicillium and in the test with Achaea janata was Active. The zone of inhibition at 250 µg/mL was 20 mm in the test on Staphylococcus aureus; 20 mm with Klebsiella pneumoniae; 20 mm in the test with Pseudomonas; 20 mm with Proteus vulgaris; 20 mm in the test with Escherichia coli; 13 mm in the test on Candida albicans. Besides, in the test on Enterococcus faecalis, the zone of inhibition at 250 µg/mL is 13 mm.
`c1ccc2c(c1)CN1CN2Cc2ccccc21`: the result in the test with Aspergillus niger, with Penicillium, with Candida albicans and with Enterococcus faecalis was inactive. Further, the zone of inhibition at 250 µg/mL in the test with Staphylococcus aureus came out at 13 mm; with Klebsiella pneumoniae, 8 mm; in the test on Pseudomonas, 8 mm; with Proteus vulgaris it was 8 mm; in the test on Escherichia coli, 8 mm.
As for `COc1ccc2c(c1)CN1CN2Cc2cc(OC)ccc21`, in the test on Aspergillus niger, the outcome was inactive. Besides, the zone of inhibition at 250 µg/mL with Staphylococcus aureus turned out to be 20 mm; in the test on Klebsiella pneumoniae, 13 mm; in the test on Pseudomonas it was 20 mm; in the test on Proteus vulgaris, 13 mm; with Escherichia coli it was 20 mm; with Candida albicans it was 20 mm. Moreover, the zone of inhibition at 250 µg/mL in the test on Enterococcus faecalis amounted to 20 mm. Also, the result in the test with Penicillium was Active.
